Assay results taken from patent publication US20230220354A1, “COMPOSITIONS AND METHODS FOR CONTROLLING CELLULAR IDENTITY” (King Abdullah University of Science and Technology, priority 2020, published 2023).
Entries after “also recorded” stand apart in the source; their conditions may differ.

Assays:
astrocytes = experiment: Lethality of individual metabolites for astrocytes in serum-free base medium; type: cell-based, mouse; details: millimolar (high) concentrations
Description: The cocktail customization was performed in primary cultures of mature astrocytes, between the second and the fourth passage. Those cells were maintained at least 8 days in culture before passaging. We corroborated the expression of Gfap before starting the experiment by immunocytochemistry (FIG. 1G). We tested individual metabolites at different concentrations in a serum-free medium (base media, BM). BM contained equivalent volumes of DMEM-F12 and Neurobasal, plus the supplements N2 and B27 at 1X. Notes about specific molecules added. S-adenosylmethionine (SAM) at millimolar concentrations was lethal for astrocytes, which is in line with the lower physiological concentrations usually found for this metabolite compared to others. Cysteine is high-sensitive to oxidation, which is manifested as white flake precipitation, a high-concentrated stock solution [2500mM] dissolved in ddH2O with pH slightly acid (5.5-6) was prepared to prevent this issue. We corroborated a pH always close to 7.4 in the cells maintained in vitro, before and after treating them with cocktails containing the diluted solution of cysteine.

[1] = system: primary cultures of mature astrocytes; experiment: Customization of C1-MIM concentrations: relative gene expression (Gfap, Cd44) by rtPCR in mature astrocytes; type: cell-based, mouse
Description: Astrocytes were derived from cortical tissues postnatal or differentiated from dissociated neurospheres after a second or third passage, as described herein. For postnatal astrocytes, cortices were isolated from P4 mice pups to get single cells and were plated as described by Schildge et al.^51Confluent cultures were sorted with Anti-GLAST (ACSA-1) Microbead kit according to manufacturer instructions. For inducing differentiation from NSCs, single cells derived from neurospheres were exposed to astrocyte media. In both cases, cells were plated over pre-treated Poly-L-Lysine plates or Poly-D-Lysine glass-coverslips using Astrocyte Differentiation Medium (DMEM-F12, 10% heat-inactivated FBS, lx B27, and 1X Glutamax).
Cell cultures seeded on adherent conditions were kept on their respective differentiation media until they reach a mature phenotype (defined by the expression of markers specific to each cell type). When cultures reached around 80-90% confluence, the differentiation media was removed, cells were washed twice with PBS and the media was replaced with CI-MIM. The composition of C1-MIM includes up to 6 metabolites (details of the combinations used are specified in figure legends) including Methionine, Threonine, Glycine, Putrescine, Cysteine [5mM], and S-adenosylmethionine [0.05mM], which are dissolved in a base medium (BM) composed by DMEM-F12 plus Neurobasal [1:1], supplemented with 1X B27, 1X N2. […] In all cases, from the same batch of each cell culture, a control culture was also washed with PBS but maintained with their own differentiation media along all the time of the treatment. Cells in this schema were fed every other day. Cells were monitored daily to attest to the change in morphology. Cells were collected on the fifth day or earlier after starting the MIM treatment (indicated in each specific case in the figure legend) for further analyses, as indicated in the figure legends of each experimental approach. Viability of cultures at the time of collection was measured by trypan blue, and all cases above 85% viable cells were processed for downstream analyses.
Total RNA was isolated from cells grown on Petri dish at the indicated time points, using the RNeasy Plus Mini kit QIAGEN, according to the manufacturer's protocol, including a DNA-removal step with DNAseI. Amount and purity of RNA were assessed using a NanoDrop spectrophotometer (Nanodrop Technologies); at least 500 ng of total RNA was used to synthesize cDNA by reverse transcription, using Maxima™ H
Minus cDNA Synthesis Master Mix. 2.5-10 ng of cDNA was used in the following qPCR performed on a CFX384 thermal cycler (Bio-Rad) using the SsoAdvanced™ Universal SYBR® Green Supermix. Results were normalized to at 193 least one reference genes β-Actin, RPL38, GAPDH, Gus, CTCF, and Natl, specified per figure), selected for their highest stability among a pool of common housekeeping genes. Primers were designed by NCBI/Primer-BLAST primers designing tool (Table 1). Statistical analysis of the results was performed using the 2ACt method^s. Results were expressed relative to the expression values of the experimental control.
The cocktail customization was performed in primary cultures of mature astrocytes, between the second and the fourth passage. Those cells were maintained at least 8 days in culture before passaging. […] We tested individual metabolites at different concentrations in a serum-free medium (base media, BM). […]

C[S+](CC[C@H](N)C(=O)[O-])C[C@H]1O[C@@H](n2cnc3c(N)ncnc32)[C@H](O)[C@@H]1O (stereo partly shown) [S-adenosylmethionine]
lethality / toxicity for astrocytes (astrocytes): lethal; also recorded: toxic | lethality / toxicity for astrocytes (astrocytes; listed as SAM): lethal

N[C@@H](CS)C(=O)O [cysteine]
Gfap expression ([1]; individual metabolite, range of concentrations (0.025 to 10mM)): potentiates

NCCCCN [putrescine]
Gfap expression ([1]; separate metabolite at 1mM): repressed

C[C@@H](O)[C@H](N)C(=O)O [threonine]
Gfap expression ([1]; separate metabolite at 1mM): repressed

FGF2: growth factor added to improve cell survival in serum-free medium [reference compound]
Gfap expression ([1]; 20ng/mL): did not inhibit | Gfap expression ([1]; concentrations lower than 20ng/mL): potentiate
